This assay deals with Dihydrofolate reductase (Bos taurus) (UniProt P00376). The assay is described as follows: In vitro inhibitory concentration against beef liver dihydrofolate reductase.
Dihydrofolate reductase (Bos taurus), sequence (P00376 whole entry, looked up): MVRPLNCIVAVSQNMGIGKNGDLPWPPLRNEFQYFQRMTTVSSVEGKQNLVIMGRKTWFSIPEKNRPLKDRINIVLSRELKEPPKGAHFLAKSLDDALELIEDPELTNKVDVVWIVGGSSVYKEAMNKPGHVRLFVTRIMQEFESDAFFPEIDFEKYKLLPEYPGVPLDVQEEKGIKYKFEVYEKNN

Regarding `Nc1nc2ncc(CCc3ccc(C(=O)N[C@@H](CCC(=O)O)C(=O)O)cc3)cc2c(=O)[nH]1`, it took 49 µM to reach half-maximal inhibition (IC50).

`Nc1nc(N)c2c(n1)NCC(CCc1ccc(C(=O)NC(CCC(=O)O)C(=O)O)cc1)C2` (centres undefined) [2-{4-[2-(2,4-Diamino-5,6,7,8-tetrahydro-pyrido[2,3-d]pyrimidin-6-yl)-ethyl]-benzoylamino}-pentanedioic acid]: 0.071 µM corresponded to half-maximal inhibition (IC50).

Regarding `Nc1nc(N)c2cc(CCc3ccc(C(=O)NC(CCC(=O)O)C(=O)O)cc3)cnc2n1` (centres undefined) [2-{4-[2-(2,4-Diamino-pyrido[2,3-d]pyrimidin-6-yl)-ethyl]-benzoylamino}-pentanedioic acid], half-maximal inhibition (IC50) was put at 0.043 µM.

Take `Nc1nc2c(c(=O)[nH]1)CC(CCc1ccc(C(=O)NC(CCC(=O)O)C(=O)O)cc1)CN2` (centres undefined) [(DDATHF) 5,10-Dideazatetrahydrofolic acid2-{4-[2-(2-Amino-4-oxo-3,4,5,6,7,8-hexahydro-pyrido[2,3-d]pyrimidin-6-yl)-ethyl]-benzoylamino}-pentanedioic acid]: the IC50 (usually the concentration needed to halve the response being measured) amounted to 560 µM.
